Reference: patent US20200253870A1, “A LDV LIPOSOMAL FORMULATION OF PHOTO SYSTEM-I FOR TREATMENT OF CANCER” (priority 2016, published 2020)
≈ marks a conversion by molar mass, not a printed value.

Columns and labels:
B16F10 cells [1] = assay: MTT cell viability assay in B16F10 cells; assay type: cell-based; settings: Mus musculus, B16-F10, B16F10, 15.62 μg/mL, Table 5 comparison, 24 h
Experimental: B16F10 and A375 cells were treated with the LDV liposomal formulation of PSI and cellular viability was checked using MTT assay. It is a colorimetric assay where MTT (Methyl thiazolyl diphenyl-tetrazolium bromide), a yellow tetrazole compound, is reduced to purple formazan by cellular reductase enzymes of live cells. Dead cells cannot do this type of reduction and are not able to develop the purple colour. […] The live cells are called as viable cells and it is denoted as % viability in the Y-axis. On the X-axis four different concentrations of the said formulation was plotted. The absorbance at 550 nm was measured and the % viability was calculated.
(§1) Cells were seeded at a density of 10000 cells per well in 96-well plate before 24 hours of treatment. Cells were treated with different concentrations of LDV liposomal formulation of PSI. After that cells were incubated for 48 hours in complete media. MTT solution (5 mg/mL) was prepared in PBS. 50 μL of MTT solution was added into each well and incubated at 37° C. for 4 hours. Purple colored formazan was dissolved in 1:1 (v/v) DMSO/MeOH and absorbances of the wells were measured at 550 nm by micro-plate ELISA reader. The % viability from this absorbance values was calculated.

A375 cells [2] = assay: FACS analysis for apoptosis (annexin V/PI) in A375 cells; assay type: cell-based, human; settings: A375, 15.62 μg/mL
Experimental: Furthermore FACS analysis using apoptosis detection kit has been performed. FACS analysis, have ascertained that the LDV liposomal formulation of PSI caused apoptotic death of B16F10 and A375 cells (FIGS. 4 and 5). Inventors have performed apoptosis assay using annexin V/PI in B16F10 and A375 cell to compare the amount of apoptotic death of cancer cell due to application of 15.62 μg/mL concentration of LDV liposomal PSI and doxorubicin. Inventors have found large amount of apoptotic death of both the cancer cells (A375 and B16F10) due to LDV liposomal PSI.
Fluorescence activated cell sorting (FACS) experiment was performed for studying the type of cell death. The cell death pathway of B16F10 cells in FACS using apoptosis detection kit was studied. Cells were seeded at a density of ˜5×10^5 cells per well in a 6-well plate before 24 hours of treatment. The cells were treated with solutions of LDV liposomal formulation of PSI. After that cells were incubated for 48 hours. Cells were trypsinized and washed with PBS by help of centrifugation. […] After this another 400 μL of assay buffer was added to the cells and these total 500 μL of cell solution was analyzed by FACS. The emission of Annexin V and PI was detected in the FITC and PI channels of BD LSRFORTESA flow cytometer using emission filters at 530 and 610 nm respectively. […] Data was analyzed using FACS DIVA software. […]

B16F10 cells [3] = assay: FACS analysis for apoptosis (annexin V/PI) in B16F10 cells; assay type: cell-based, mouse; settings: B16F10, 15.62 μg/mL, 48 hours
Experimental: Fluorescence activated cell sorting (FACS) experiment was performed for studying the type of cell death. The cell death pathway of B16F10 cells in FACS using apoptosis detection kit was studied. Cells were seeded at a density of ˜5×10^5 cells per well in a 6-well plate before 24 hours of treatment. The cells were treated with solutions of LDV liposomal formulation of PSI. After that cells were incubated for 48 hours. Cells were trypsinized and washed with PBS by help of centrifugation. Cells were incubated in dark at 37° C. for 30 minutes with a 100 μL solution of assay buffer containing 2.5 μL of Propidium iodide (PI) and 2.5 μL of annexin V. All these reagents were supplied along with the apoptosis detection kit (Santa Cruz Biotechnology). The stock concentration of Propidium iodide and annexin V was 50 μg/mL and 200 μg/mL respectively. After this another 400 μL of assay buffer was added to the cells and these total 500 μL of cell solution was analyzed by FACS. The emission of Annexin V and PI was detected in the FITC and PI channels of BD LSRFORTESA flow cytometer using emission filters at 530 and 610 nm respectively. In the represented data, cells in the Q1, Q2 and Q4 quadrants are regarded as necrotic, late apoptotic and early apoptotic cells respectively. Cells in the Q3 quadrant are regarded as normal cells or healthy cells. Data was analyzed using FACS DIVA software. […]

[4] = MTT cell viability assay in WI38 normal cells; assay type: cell-based; settings: human, WI38, 15.62 μg/mL, Table 5 comparison
Experimental: B16F10 and WI38 cells were seeded in a 96-well plate at density of 10000 cells per well before 24 h of treatment. Cells were treated with LDV liposomal PSI and normal liposomal PSI separately in complete media for 24 h. After 24 h, MTT assay was performed. […] In case of normal liposomal PSI, inventors have found similar amount of cell viability for both B16F10 and WI38 cells.
B16F10 and A375 cells were treated with the LDV liposomal formulation of PSI and cellular viability was checked using MTT assay. It is a colorimetric assay where MTT (Methyl thiazolyl diphenyl-tetrazolium bromide), a yellow tetrazole compound, is reduced to purple formazan by cellular reductase enzymes of live cells. Dead cells cannot do this type of reduction and are not able to develop the purple colour. Therefore an idea about the amount of cells lived after the treatment of LDV liposomal formulation of PSI with respect to those cells (control) which are not treated with the peptide. The live cells are called as viable cells and it is denoted as % viability in the Y-axis. On the X-axis four different concentrations of the said formulation was plotted. The absorbance at 550 nm was measured and the % viability was calculated.
% Viability=[(A550Treated Cells−A550 Backgrounds)/(A550Untreated Cells−A550 Backgrounds)]*100.

A375 cells [5] = assay: cells; assay type: cell-based, human; settings: A-375, MTT
Experimental: B16F10 and A375 cells were treated with the LDV liposomal formulation of PSI and cellular viability was checked using MTT assay. […] Therefore an idea about the amount of cells lived after the treatment of LDV liposomal formulation of PSI with respect to those cells (control) which are not treated with the peptide. […] The absorbance at 550 nm was measured and the % viability was calculated.
as §1
A375 cells were seeded at a density of 10000 cells per well in 96-well plate before 24 hours of treatment. Cells were treated with LDV-liposome-PSI and doxorubicin for 24 hours. MTT assay as described was performed and IC50 value was calculated using CompuSyn software.

Q: Which viability at 15.62 µg/mL (B16F10 cells [1]) does the source give for `COc1cccc2c1C(=O)c1c(O)c3c(c(O)c1C2=O)C[C@@](O)(C(=O)CO)C[C@@H]3O[C@H]1C[C@H](N)[C@H](O)[C@H](C)O1` [Doxorubicin] here?
A: The viability at 15.62 µg/mL was 19.9%.

Q: And the “Amount of Apoptotic death of cancer cell (%)” value (A375 cells [2])?
A: The value was 100%.

Q: And the “Amount of Apoptotic death of cancer cell (%)” value (B16F10 cells [3])?
A: Its value is 99.9%.

Q: And the viability at 24 h, 15.62 μg/mL [4]?
A: The viability at 24 h, 15.62 μg/mL was 65.2%.

Q: What about the IC50 (A375 cells [5]; A375, Melanoma (human), CompuSyn software) of the same molecule?
A: The IC50 was 10.2 µg/mL (≈ 18.7 µM).

Q: And the viability at 3.12 µg/mL (A375 cells [5]; Homo sapiens, A375, 3.12 μg/mL)?
A: The viability at 3.12 µg/mL was 94%.

Q: And the viability at 6.25 µg/mL (A375 cells [5]; Homo sapiens, A375, 6.25 μg/mL)?
A: The viability at 6.25 µg/mL was 59.2%.

Q: And the viability at 12.5 µg/mL (A375 cells [5]; Homo sapiens, A375, 12.5 μg/mL)?
A: The viability at 12.5 µg/mL was 31.5%.

Q: And the viability at 25 µg/mL (A375 cells [5]; Homo sapiens, A375, 25 μg/mL)?
A: Its viability at 25 µg/mL is 11.7%.

Q: And the viability at 50 µg/mL (A375 cells [5]; Homo sapiens, A375, 50 μg/mL)?
A: The viability at 50 µg/mL was 4.9%.

Q: And the viability at 100 µg/mL (A375 cells [5]; Homo sapiens, A375, 100 μg/mL)?
A: Its viability at 100 µg/mL is 6.09%.
